Test [1] deals with T1, LBP-8 (Caenorhabditis elegans, UniProt O02324).
T1 construct: full-length residues 1-137, pMCSG7 His6-TEV, E. coli BL21(DE3); His tag cleaved by TEV
T1 sequence (O02324 1-137): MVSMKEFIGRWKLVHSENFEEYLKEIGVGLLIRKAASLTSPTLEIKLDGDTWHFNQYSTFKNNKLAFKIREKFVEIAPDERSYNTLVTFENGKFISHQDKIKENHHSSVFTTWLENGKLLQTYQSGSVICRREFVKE
The test can be described thus: […],8-ANS fluorescence displacement. It is filed as binding. Particulars: PBS pH 8.0, 37 °C, 250 nM protein, 800 nM 1,8-ANS, 1% ethanol; refolded delipidated protein; competitive with 1,8-ANS.

For test [2], the target named is T1, LBP-8. The test can be described thus: differential scanning fluorimetry, SYPRO orange. Type of test: binding. Particulars: 20 µM ligand, 7 µM refolded protein, 1% ethanol; destabilising shift. (DSF heats the sample and reads unfolding from a dye or from intrinsic fluorescence.)

On to `CCCCCCCC/C=C\CCCCCCCC(=O)NCCO` [OEA, oleoylethanolamide], for which the Ki result in test [1] was “oleic acid and OEA, and both had very similar Ki’s”.

Take `CCCCCCCC/C=C\CCCCCCCC(=O)O` [OA, oleic acid]: the Ki result in test [1] is “oleic acid and OEA, and both had very similar Ki’s”. The “decrease in Tm vs apo” value in test [2] was ~ 4 °C.
